The values that follow come from patent US6369226B1, “Substituted benzamide inhibitors of rhinovirus 3C protease” (Agouron Pharmaceuticals, Inc., priority 1999, dated 2002).

The target of series [1] is T1, HRV-14 3CP (Human rhinovirus 14, UniProt P03303).
T1 construct: The 2A and 3C protease (3CP) process this polyprotein into its functional viral proteins in HRV
The series can be described thus: 3CP enzyme inhibition assay. Type of series: biochemical. The following applies: for kinact/KI: read-out: Kobs/[I]. The source says: 3CP Inhibition Assays and Antiviral Assays The details of the 3CP enzyme assays used and the antiviral assays used are outlined in Dragovich, P. S., Webber, S. E, Babine, R. E., Fuhrman, S. A., Patick, A. K., Matthews, D. A., Lee, C. A., Reich, S. H., Prins, T. J., Marakovits, J. T., Littlefield, E. S., Zhou, R., Tikhe, J., Ford, C. E., Wallace, M. B., Meador, III, J. W., Ferre, R., Brown, E. L., Binford, S. L, Harr, , J. E. V., DeLisle, D. M. and Worland, S. T. Structure-Based Design, Synthesis, and Biological Evaluation of Irreversible Human Rhinovirus 3C Protease Inhibitors. 1. Michael Acceptor Structure-Activity Studies J. Med. Chem. 1998,41, 2806, the disclosure of which is incorporated by reference herein.

In series [2] the test system is HRV-14. The series can be described thus: antiviral cytopathic effect assay employing H1-HeLa cells infected with HRV-14. Type of series: cell-based, human rhinovirus serotype 14. The note with it: for EC50: Rhinovirus B, HRV14, H1-HeLa. On the technique in general: Cytopathic effects are the visible damage that an infection or toxin causes in cultured cells.
The nature of series [3]: cytotoxicity (CC50) in the antiviral cell culture assay. The note with it: human.
[4] abbreviates: Table 1, Serotype 14, NI = no inhibition.

Read-outs that look alike come from different tables or passages of the source.

T1 sequence (P03303 1538-1719): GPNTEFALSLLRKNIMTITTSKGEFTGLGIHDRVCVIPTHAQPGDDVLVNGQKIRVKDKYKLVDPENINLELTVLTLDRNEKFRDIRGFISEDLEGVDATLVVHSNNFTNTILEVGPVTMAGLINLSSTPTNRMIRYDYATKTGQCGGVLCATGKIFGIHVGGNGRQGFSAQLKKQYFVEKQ

Broadly, the EC50 is the concentration needed to bring the measured effect to its halfway point. What is called CC50 is the concentration giving 50% cytotoxicity. With `CCOC(=O)C=Cc1cc(CN2CCN(C(=O)OCC)CC2)cc(C(N)=O)c1` [Compound 28, 4-[3-Carbamoyl-5-(2-ethoxycarbonyl-vinyl)-benzyl]-piperazine-1-carboxylic acid ethyl ester], the kinact/KI in series [1] turned out to be 130 M⁻¹ s⁻¹. Also, in series [2], a half-maximal effect (EC50) was put at 1.8 µM. In series [3], this compound displayed a half-maximal cytotoxic concentration (CC50) of more than 100 µM.

With `CCOC(=O)/C=C/c1cc(C(N)=O)ccc1C` [Compound 10, 6-Methyl-3-(3-carbamoylphenyl)-acrylic acid ethyl ester], in series [1] (@ 25 (concentration unit not given), Serotype 14), the “% inhibition (printed in the Kobs/[I] column)” value amounted to 10% @ 25. The EC50 in series [2] is more than 100 µM. Besides, the CC50 in series [3] is more than 100 µM.

As to `NC(=O)c1cccc(C=CC(=O)OCc2cccnc2)c1` [Compound 6, 3-(3-Carbamoyl-phenyl)-acrylic acid pyridin-3-yl methyl ester], the “Kobs/[I]” value in series [1] (setting [4]) came out at 57 M⁻¹ s⁻¹.

On to `NC(=O)c1cccc(C=CC(=O)OCCO)c1` [Compound 4, 3-(3-Carbamoyl-phenyl)-acrylic acid 2-hydroxyethyl ester], for which, in series [1] (setting [4]), the kinact/KI was determined as 42 M⁻¹ s⁻¹. For the same compound, the EC50 in series [2] came out at 20 µM. The compound also yielded a CC50 in series [3] of more than 320 µM.

Regarding `CCOC(=O)/C=C/c1cc(CO)cc(C(N)=O)c1` [Compound 13, 3-(3-Carbamoyl-5-hydroxymethyl-phenyl)-acrylic acid ethyl ester], the kinact/KI in series [1] (setting [4]) was 54 M⁻¹ s⁻¹. Besides, in series [2], the EC50 is more than 100 µM. In addition, the CC50 in series [3] was more than 100 µM.

As to `CCOC(=O)/C(C#N)=C/c1cccc(C(N)=O)c1` [Compound 9, (E)-3-(3-Carbamoyl-phenyl)-2-cyano-acrylic acid ethyl ester], the concentration giving a half-maximal response (EC50) in series [2] is more than 100 µM. Besides, the 50% cytotoxic concentration (CC50) in series [3] is more than 100 µM.

`COC(=O)/C=C/c1cccc(C(N)=O)c1` [Compound 2, 3-(3-Carbamoyl-phenyl)-acrylic acid methyl ester]: the kinact/KI in series [1] (setting [4]) was found to be 28 M⁻¹ s⁻¹. Moreover, in series [2], the “fold less active in the antiviral assay relative to ethyl ester compound 1” value came to 10 fold and the midpoint of the response, the EC50, lay at 150 µM. Moreover, in series [3], the CC50 was more than 320 µM.

By Ki is commonly meant a measure of affinity in units of concentration, obtained from inhibition or displacement. A lower Ki goes with higher affinity. As for `NC(=O)c1cccc(C=O)c1` [Compound 1a, 3-Carbamoyl-benzaldehyde], affinity in series [1] was put at a Ki of 104 µM.

Regarding `CCOC(=O)C=Cc1cc(CN2CCN(c3ncccn3)CC2)cc(C(N)=O)c1` [Compound 29, 3-{3-Carbamoyl-5-(4-pyrimidin-2-yl-piperazin-1-ylmethyl)-phenyl}-acrylic acid ethyl ester], the kinact/KI in series [1] is 163 M⁻¹ s⁻¹. Moreover, the EC50 in series [2] (Table 3, Serotype 14, read-out: EC50) came to 1 µM. The CC50 in series [3] was more than 100 µM.

On to `NC(=O)c1cccc(C=CC(=O)OCCc2ccccc2)c1` [Compound 5, 3-(3-Carbamoyl-phenyl)-acrylic acid phenethyl ester], for which the kinact/KI in series [1] (setting [4]) was determined as 83 M⁻¹ s⁻¹. In series [2], this compound showed a 50% effective concentration (EC50) of 100 µM. This compound also yielded a 50% cytotoxic concentration (CC50) in series [3] of more than 320 µM.

Turning to “3-[3-Carbamoyl-5-(5-pyridin-2-yl-[1,3,4]oxaldiazol-2-ylsulfanylmethyl-phenyl]-acrylic acid ethyl ester [Compound 25]”, in series [1] (Table 3, Serotype 14), the “Kobs/[I]” value amounted to 286 M⁻¹ s⁻¹.

Consider `CCOC(=O)C=Cc1cc(CN(CCC(=O)OCC)Cc2ccccc2)cc(C(N)=O)c1` [Compound 23, 3-(3-{[Benzyl-(2-ethoxycarbonyl-ethyl)-amino]-methyl}-5-carbamoyl-phenyl)-acrylic acid ethylester], for which the kinact/KI in series [1] (Table 3, Serotype 14) was determined as 568 M⁻¹ s⁻¹. The same compound yielded a 50% effective concentration (EC50) in series [2] of 10 µM. In series [3], the CC50 was more than 100 µM.

For the compound `CCOC(=O)C=Cc1cc(CN2CCN(c3ccccn3)CC2)cc(C(N)=O)c1` [Compound 26, 3-[3-Carbamoyl-5-(4-pyridin-2-yl-piperizin-1-methyl)-phenyl]-acrylic acid ethyl ester], the “Kobs/[I]” value in series [1] (Table 3, Serotype 14) came out at 269 M⁻¹ s⁻¹.

Turning to `CCOC(=O)C=Cc1cc(CN2CCN(c3ccccc3C#N)CC2)cc(C(N)=O)c1` [Compound 30, 3-{3-Carbamoyl-5-[4-(2-cyano-phenyl)-piperazin-1-ylmethyl]-phenyl}-acrylicacid ethyl ester], in series [1] (Table 3, Serotype 14), the kinact/KI was determined as 139 M⁻¹ s⁻¹. In series [2], the “antiviral activity (in words)” value is reported as “submicromolar antiviral activity” and the response was half-maximal at 0.6 µM (EC50). In addition, the EC50 in series [2] (read-out: antiviral EC50) worked out at 0.6 µM. Further, in series [3], the CC50 was 79 µM.
